Measured values: PubChem BioAssay AID194 (DTP/NCI, 2004)
Several values for one entry are separate records, joined by “and”; a condition that tells them apart may be missing. Equal values may be shown once. Inconclusive results are not listed.

System: BDF1 mice, B16 melanoma s.c., survival/tumor T/C
Assay: NCI In Vivo Anticancer Drug Screen. Data for tumor model B16 Melanoma (subcutaneous) in B6D2F1 (BDF1) mice
Description: The antitumor activity of compounds was measured in mice bearing transplantable tumors. Survival or tumor size were measured and the results are expressed as the measurement made in the treated group (T) divided by the measurement made in the vehicle treated control group (C). The tumor model used in this assay is B16 Melanoma (subcutaneous) in B6D2F1 (BDF1) mice

[1] = endpoint: median survival time, dose: 4.0 mg/kg/injection, schedule: Q01DX009 (ip), vehicle: saline with Tween-80, higher = longer survival
[2] = endpoint: median survival time, dose: 50.0 mg/kg/injection, schedule: Q01DX009 (ip), vehicle: saline, higher = longer survival
[3] = endpoint: median survival time, dose: 100.0 mg/kg/injection, schedule: Q01DX009 (ip), vehicle: saline, higher = longer survival

CC1OC(=O)C(C(C)C)NC(=O)C(C(C)C)OC(=O)C(C(C)C)NC(=O)C(C)OC(=O)C(C(C)C)NC(=O)C(C(C)C)OC(=O)C(C(C)C)NC(=O)C(C)OC(=O)C(C(C)C)NC(=O)C(C(C)C)OC(=O)C(C(C)C)NC1=O (stereo unspecified)
T/C (endpoint: median survival time, dose: 3.4 mg/kg/injection, schedule: Q01DX009 (ip), vehicle: saline with Tween-80, higher = longer survival): 86 % of control | T/C (endpoint: median survival time, dose: 5.0 mg/kg/injection, schedule: Q01DX009 (ip), vehicle: saline with Tween-80, higher = longer survival): 86 % of control | T/C (endpoint: median survival time, dose: 7.5 mg/kg/injection, schedule: Q01DX009 (ip), vehicle: saline with Tween-80, higher = longer survival): 91 % of control | T/C (endpoint: median survival time, dose: 15.0 mg/kg/injection, schedule: Q04DX003 (ip), vehicle: saline with Tween-80, higher = longer survival): 86 % of control | T/C (endpoint: median survival time, dose: 20.0 mg/kg/injection, schedule: Q04DX003 (ip), vehicle: saline with Tween-80, higher = longer survival): 90 % of control | T/C (endpoint: median survival time, dose: 30.0 mg/kg/injection, schedule: Q01DX001 (ip), vehicle: saline with Tween-80, higher = longer survival): 86 % of control | T/C (endpoint: median survival time, dose: 30.0 mg/kg/injection, schedule: Q04DX003 (ip), vehicle: saline with Tween-80, higher = longer survival): 91 % of control | T/C (endpoint: median survival time, dose: 45.0 mg/kg/injection, schedule: Q01DX001 (ip), vehicle: saline with Tween-80, higher = longer survival): 97 % of control

COC(=O)c1csc(-c2csc(CCN)n2)n1
T/C (endpoint: median survival time, dose: 6.25 mg/kg/injection, schedule: Q01DX009 (ip), vehicle: water, higher = longer survival): 89 % of control | T/C (endpoint: median survival time, dose: 12.5 mg/kg/injection, schedule: Q01DX009 (ip), vehicle: water, higher = longer survival): 98 % of control | T/C (endpoint: median survival time, dose: 25.0 mg/kg/injection, schedule: Q01DX009 (ip), vehicle: water, higher = longer survival): 91 % of control | T/C (endpoint: median survival time, dose: 50.0 mg/kg/injection, schedule: Q01DX009 (ip), vehicle: water, higher = longer survival): 117 % of control | T/C (endpoint: median survival time, dose: 100.0 mg/kg/injection, schedule: Q01DX009 (ip), vehicle: water, higher = longer survival): 102 % of control

CC1=C(/C=C/C(C)=C/C=C/C(C)=C/CO)C(C)(C)CCC1
T/C [1]: 102 % of control | T/C (endpoint: median survival time, dose: 8.0 mg/kg/injection, schedule: Q01DX009 (ip), vehicle: saline with Tween-80, higher = longer survival): 94 % of control | T/C (endpoint: median survival time, dose: 16.0 mg/kg/injection, schedule: Q01DX009 (ip), vehicle: saline with Tween-80, higher = longer survival): 101 % of control and 117 % of control | T/C (endpoint: median survival time, dose: 32.0 mg/kg/injection, schedule: Q01DX009 (ip), vehicle: saline with Tween-80, higher = longer survival): 100 % of control and 102 % of control | T/C (endpoint: median survival time, dose: 64.0 mg/kg/injection, schedule: Q01DX009 (ip), vehicle: saline with Tween-80, higher = longer survival): 92 % of control

O=C1CSC(=S)N1c1ccco1
T/C (endpoint: median survival time, dose: 50.0 mg/kg/injection, schedule: Q01DX009 (ip), vehicle: Klucel (hydroxypropylcellulose) (HPC), higher = longer survival): 111 % of control | T/C (endpoint: median survival time, dose: 400.0 mg/kg/injection, schedule: Q01DX009 (ip), vehicle: Klucel (hydroxypropylcellulose) (HPC), higher = longer survival): 118 % of control

Nc1ccc(N(CCCl)CCN(CCCl)c2ccc(N)cc2)cc1
T/C (endpoint: median survival time, dose: 0.36 mg/kg/injection, schedule: Q01DX009 (ip), vehicle: saline, higher = longer survival): 124 % of control | T/C (endpoint: median survival time, dose: 0.75 mg/kg/injection, schedule: Q01DX009 (ip), vehicle: saline, higher = longer survival): 114 % of control | T/C (endpoint: median survival time, dose: 1.5 mg/kg/injection, schedule: Q01DX009 (ip), vehicle: saline, higher = longer survival): 103 % of control | T/C (endpoint: median survival time, dose: 3.0 mg/kg/injection, schedule: Q01DX009 (ip), vehicle: saline, higher = longer survival): 98 % of control

CNc1ncnc2c1cnn2C
T/C (endpoint: median survival time, dose: 10.0 mg/kg/injection, schedule: Q01DX009 (ip), vehicle: saline, higher = longer survival): 92 % of control | T/C (endpoint: median survival time, dose: 20.0 mg/kg/injection, schedule: Q01DX009 (ip), vehicle: saline, higher = longer survival): 103 % of control

CO[C@@]12[C@H](COC(N)=O)C3=C(C(=O)C(C)=C(N)C3=O)N1C[C@@H]1N[C@@H]12
T/C (endpoint: median survival time, dose: 0.25 mg/kg/injection, schedule: Q01DX009 (ip), vehicle: Klucel (hydroxypropylcellulose) (HPC), higher = longer survival): 95 % of control | T/C (endpoint: median survival time, dose: 0.5 mg/kg/injection, schedule: Q01DX009 (ip), vehicle: Klucel (hydroxypropylcellulose) (HPC), higher = longer survival): 110 % of control | T/C (endpoint: median survival time, dose: 2.0 mg/kg/injection, schedule: Q01DX009 (ip), vehicle: Klucel (hydroxypropylcellulose) (HPC), higher = longer survival): 154 % of control | T/C (endpoint: median tumor weight (est.), dose: 0.25 mg/kg/injection, schedule: Q01DX009 (ip), vehicle: saline, higher = larger tumour): 77 % of control | T/C (endpoint: median tumor weight (est.), dose: 0.5 mg/kg/injection, schedule: Q01DX009 (ip), vehicle: saline, higher = larger tumour): 101 % of control | T/C (endpoint: median tumor weight (est.), dose: 1.0 mg/kg/injection, schedule: Q01DX009 (ip), vehicle: saline, higher = larger tumour): 70 % of control | T/C (endpoint: median tumor weight (est.), dose: 2.0 mg/kg/injection, schedule: Q01DX009 (ip), vehicle: saline, higher = larger tumour): 30 % of control

COc1cccc2c1C(=O)c1c(O)c3c(c(O)c1C2=O)CC(O)(C(C)=O)CC3OC1CC(N)C(O)C(C)O1 (stereo unspecified)
T/C (endpoint: median survival time, dose: 5.8 mg/kg/injection, schedule: Q01DX009 (ip), vehicle: saline, higher = longer survival): 107 % of control | T/C (endpoint: median survival time, dose: 11.7 mg/kg/injection, schedule: Q01DX009 (ip), vehicle: saline, higher = longer survival): 103 % of control | T/C (endpoint: median survival time, dose: 23.4 mg/kg/injection, schedule: Q01DX009 (ip), vehicle: saline, higher = longer survival): 120 % of control

CC1=C(/C=C/C(C)=C/C=C/C(C)=C/C(=O)O)C(C)(C)CCC1
T/C [1]: 88 % of control

O=C1OC(C(O)CO)C(O)=C1O (stereo unspecified)
T/C [2]: 106 % of control | T/C [3]: 103 % of control | T/C (endpoint: median survival time, dose: 200.0 mg/kg/injection, schedule: Q01DX009 (ip), vehicle: saline, higher = longer survival): 103 % of control | T/C (endpoint: median survival time, dose: 400.0 mg/kg/injection, schedule: Q01DX009 (ip), vehicle: saline, higher = longer survival): 109 % of control | T/C (endpoint: median survival time, dose: 800.0 mg/kg/injection, schedule: Q01DX009 (ip), vehicle: saline, higher = longer survival): 109 % of control

O=C(O)CCCc1ccc(N(CCCl)CCCl)cc1
T/C (endpoint: median survival time, dose: 1.5 mg/kg/injection, schedule: Q01DX009 (ip), vehicle: Klucel (hydroxypropylcellulose) (HPC), higher = longer survival): 111 % of control | T/C (endpoint: median survival time, dose: 3.0 mg/kg/injection, schedule: Q01DX009 (ip), vehicle: Klucel (hydroxypropylcellulose) (HPC), higher = longer survival): 105 % of control | T/C (endpoint: median survival time, dose: 4.0 mg/kg/injection, schedule: Q01DX009 (ip), vehicle: Klucel (hydroxypropylcellulose) (HPC), higher = longer survival): 121 % of control | T/C (endpoint: median survival time, dose: 6.0 mg/kg/injection, schedule: Q01DX009 (ip), vehicle: Klucel (hydroxypropylcellulose) (HPC), higher = longer survival): 101 % of control | T/C (endpoint: median survival time, dose: 8.0 mg/kg/injection, schedule: Q01DX009 (ip), vehicle: Klucel (hydroxypropylcellulose) (HPC), higher = longer survival): 102 % of control | T/C (endpoint: median survival time, dose: 12.0 mg/kg/injection, schedule: Q01DX009 (ip), vehicle: Klucel (hydroxypropylcellulose) (HPC), higher = longer survival): 97 % of control | T/C (endpoint: median tumor weight (est.), dose: 4.0 mg/kg/injection, schedule: Q01DX009 (ip), vehicle: saline with Tween-80, higher = larger tumour): 61 % of control | T/C (endpoint: median tumor weight (est.), dose: 8.0 mg/kg/injection, schedule: Q01DX009 (ip), vehicle: saline with Tween-80, higher = larger tumour): 25 % of control

CCCCC(=O)OCC(=O)[C@]1(O)Cc2c(O)c3c(c(O)c2[C@@H](OC2CC(NC(=O)C(F)(F)F)C(O)C(C)O2)C1)C(=O)c1c(OC)cccc1C3=O (stereo partly specified)
T/C (endpoint: median survival time, dose: 9.0 mg/kg/injection, schedule: Q01DX008 (ip), vehicle: distilled water + Tween-80, higher = longer survival): 104 % of control | T/C (endpoint: median survival time, dose: 13.0 mg/kg/injection, schedule: Q01DX008 (ip), vehicle: distilled water + Tween-80, higher = longer survival): 118 % of control | T/C (endpoint: median survival time, dose: 20.0 mg/kg/injection, schedule: Q01DX008 (ip), vehicle: distilled water + Tween-80, higher = longer survival): 110 % of control | T/C (endpoint: median survival time, dose: 30.0 mg/kg/injection, schedule: Q01DX008 (ip), vehicle: distilled water + Tween-80, higher = longer survival): 124 % of control

CC1(C)N=C(N)N=C(N)N1c1ccc(OCCCNC(=O)Nc2cccc(S(=O)(=O)F)c2)c(Cl)c1
T/C [2]: 115 % of control | T/C [3]: 91 % of control

C=C(C)C12OC3(c4ccccc4)OC1C1C4OC4(CO)C(O)C4(O)C(=O)C(C)=CC4C1(O3)C(C)C2OC(=O)/C=C/C=C/c1ccccc1 (stereo unspecified)
T/C (endpoint: median survival time, dose: 6.3 micrograms/kg/injection, schedule: Q01DX009 (ip), vehicle: saline with Tween-80, higher = longer survival): 115 % of control | T/C (endpoint: median survival time, dose: 12.5 micrograms/kg/injection, schedule: Q01DX009 (ip), vehicle: saline with Tween-80, higher = longer survival): 99 % of control | T/C (endpoint: median survival time, dose: 25.0 micrograms/kg/injection, schedule: Q01DX009 (ip), vehicle: saline with Tween-80, higher = longer survival): 115 % of control | T/C (endpoint: median survival time, dose: 50.0 micrograms/kg/injection, schedule: Q01DX009 (ip), vehicle: saline with Tween-80, higher = longer survival): 103 % of control | T/C (endpoint: median survival time, dose: 100.0 micrograms/kg/injection, schedule: Q01DX009 (ip), vehicle: saline with Tween-80, higher = longer survival): 98 % of control
